Measurements taken from paper PMC5218480 (PLoS ONE, 2017).

Test system: MV-4-11 cells
Experiment: Gene expression microarray analysis (Affymetrix PrimeView) and GSEA
Assay type: cell-based, human
Design: RFU PODN (11730768_x_at) / Fold change /veh PODN (11730768_x_at) / RFU LINC00158 (11744669_a_at) / Fold change /veh LINC00158 (11744669_a_at) / RFU DUSP10 (11751237_a_at) / Fold change /veh DUSP10 (11751237_a_at) / RFU ID3 (11757404_x_at) / Fold change /veh ID3 (11757404_x_at) / RFU PLEKHG5 (11737974_s_at) / Fold change /veh PLEKHG5 (11737974_s_at) / RFU LRRC4B (11730491_at) / Fold change /veh LRRC4B (11730491_at) / RFU GIMAP4 (11747438_a_at) / Fold change /veh GIMAP4 (11747438_a_at) / RFU KRT8 (11758183_x_at) / Fold change /veh KRT8 (11758183_x_at) / RFU CNN1 (11734310_a_at) / Fold change /veh CNN1 (11734310_a_at) / RFU VPS37D (11726825_at) / Fold change /veh VPS37D (11726825_at) / RFU C10orf10 (11716522_x_at) / Fold change /veh C10orf10 (11716522_x_at) / RFU KIR2DL2 /// KIR2DL4 /// KIR2DL5A /// KIR2DL5B /// KIR2DS1 /// KIR2DS2 /// KIR2DS3 /// KIR2DS4 /// KIR3DL3 /// KIR3DL3 /// KIR3DS1 (11738374_at) / Fold change /veh KIR2DL2 /// KIR2DL4 /// KIR2DL5A /// KIR2DL5B /// KIR2DS1 /// KIR2DS2 /// KIR2DS3 /// KIR2DS4 /// KIR3DL3 /// KIR3DL3 /// KIR3DS1 (11738374_at) / RFU C1QL1 (11718748_at) / Fold change /veh C1QL1 (11718748_at) / RFU TMPRSS4 (11747572_a_at) / Fold change /veh TMPRSS4 (11747572_a_at) / RFU HAMP (11756126_x_at) / Fold change /veh HAMP (11756126_x_at) / RFU RNFT2 (11725882_a_at) / Fold change /veh RNFT2 (11725882_a_at) / RFU NR4A2 (11747474_a_at) / Fold change /veh NR4A2 (11747474_a_at) / RFU ABCC12 (11746883_a_at) / Fold change /veh ABCC12 (11746883_a_at) / RFU TMEM136 (11760407_x_at) / Fold change /veh TMEM136 (11760407_x_at) / RFU CLDN22 /// WWC2 (11732394_at) / Fold change /veh CLDN22 /// WWC2 (11732394_at) / RFU HLA-DPB1 (11760878_x_at) / Fold change /veh HLA-DPB1 (11760878_x_at) / RFU SPINT1 (11716480_a_at) / Fold change /veh SPINT1 (11716480_a_at) / RFU GAP43 (11754022_s_at) / Fold change /veh GAP43 (11754022_s_at) / RFU A4GNT (11735810_at) / Fold change /veh A4GNT (11735810_at) / RFU PRB3 (11715151_x_at) / Fold change /veh PRB3 (11715151_x_at) / RFU TUBB4B (11761932_at) / Fold change /veh TUBB4B (11761932_at) / RFU CAPN14 (11732068_a_at) / Fold change /veh CAPN14 (11732068_a_at) / RFU TMCC2 (11721928_a_at) / Fold change /veh TMCC2 (11721928_a_at) / RFU IRGQ (11745062_a_at) / Fold change /veh IRGQ (11745062_a_at) / RFU FAM174B (11720279_a_at) / Fold change /veh FAM174B (11720279_a_at) / RFU TMPRSS4 (11748680_a_at) / Fold change /veh TMPRSS4 (11748680_a_at) / RFU FAM212B (11763350_a_at) / Fold change /veh FAM212B (11763350_a_at) / RFU PLEKHG5 (11743358_a_at) / Fold change /veh PLEKHG5 (11743358_a_at) / RFU ZSCAN30 (11745921_a_at) / Fold change /veh ZSCAN30 (11745921_a_at) / RFU CMKLR1 (11741424_a_at) / Fold change /veh CMKLR1 (11741424_a_at) / RFU LOC101060620 /// MAPK8IP1 (11723275_at) / Fold change /veh LOC101060620 /// MAPK8IP1 (11723275_at) / RFU SPTSSB (11747773_x_at) / Fold change /veh SPTSSB (11747773_x_at) / RFU PRSS12 (11739890_at) / Fold change /veh PRSS12 (11739890_at) / RFU BIN1 (11741810_x_at) / Fold change /veh BIN1 (11741810_x_at) / RFU WNT11 (11732464_a_at) / Fold change /veh WNT11 (11732464_a_at) / RFU C10orf10 (11716521_a_at) / Fold change /veh C10orf10 (11716521_a_at) / RFU C5orf56 (11738089_at) / Fold change /veh C5orf56 (11738089_at) / RFU CYB561 (11721691_x_at) / Fold change /veh CYB561 (11721691_x_at) / RFU ANKRD19P (11752326_a_at) / Fold change /veh ANKRD19P (11752326_a_at) / RFU OR2T12 /// OR2T33 /// OR2T8 (11738714_s_at) / Fold change /veh OR2T12 /// OR2T33 /// OR2T8 (11738714_s_at) / RFU VCAN (11748164_a_at) / Fold change /veh VCAN (11748164_a_at) / RFU JSRP1 (11732532_at) / Fold change /veh JSRP1 (11732532_at) / RFU KRTAP10-11 (11738290_x_at) / Fold change /veh KRTAP10-11 (11738290_x_at) / RFU MYO3A (11730013_a_at) / Fold change /veh MYO3A (11730013_a_at) / RFU EBF3 (11725865_a_at) / Fold change /veh EBF3 (11725865_a_at) / RFU CAMK2N1 (11719241_x_at) / Fold change /veh CAMK2N1 (11719241_x_at) / RFU C5orf56 (11738088_a_at) / Fold change /veh C5orf56 (11738088_a_at) / RFU OLFML3 (11715873_a_at) / Fold change /veh OLFML3 (11715873_a_at) / RFU LOC100653217 /// NTM (11731650_a_at) / Fold change /veh LOC100653217 /// NTM (11731650_a_at) / RFU MAPK11 (11762145_a_at) / Fold change /veh MAPK11 (11762145_a_at) / RFU FIZ1 (11724087_x_at) / Fold change /veh FIZ1 (11724087_x_at) / RFU OASL (11726364_x_at) / Fold change /veh OASL (11726364_x_at) / RFU SOX15 (11748057_x_at) / Fold change /veh SOX15 (11748057_x_at) / RFU CD79A (11719716_a_at) / Fold change /veh CD79A (11719716_a_at) / RFU HIST1H1D (11736915_at) / Fold change /veh HIST1H1D (11736915_at) / RFU CASKIN2 (11723855_a_at) / Fold change /veh CASKIN2 (11723855_a_at) / RFU LOC730098 (11760151_x_at) / Fold change /veh LOC730098 (11760151_x_at) / RFU OR4N2 (11742367_at) / Fold change /veh OR4N2 (11742367_at) / RFU PRRT2 (11749266_a_at) / Fold change /veh PRRT2 (11749266_a_at) / RFU SNX32 (11753110_a_at) / Fold change /veh SNX32 (11753110_a_at) / RFU CDHR5 (11726645_a_at) / Fold change /veh CDHR5 (11726645_a_at) / RFU RCAN1 (11760418_a_at) / Fold change /veh RCAN1 (11760418_a_at) / RFU FAM167A (11723789_a_at) / Fold change /veh FAM167A (11723789_a_at) / RFU FAM26E (11764081_at) / Fold change /veh FAM26E (11764081_at) / RFU ISYNA1 (11749810_s_at) / Fold change /veh ISYNA1 (11749810_s_at) / RFU ACY1 (11761880_at) / Fold change /veh ACY1 (11761880_at) / RFU 11764098_at / Fold change /veh 11764098_at / RFU SAMD14 (11745864_x_at) / Fold change /veh SAMD14 (11745864_x_at) / RFU NPB (11741838_a_at) / Fold change /veh NPB (11741838_a_at) / RFU TMPRSS6 (11731388_a_at) / Fold change /veh TMPRSS6 (11731388_a_at) / RFU KRTAP10-2 (11738614_at) / Fold change /veh KRTAP10-2 (11738614_at) / RFU ARHGAP8 /// PRR5-ARHGAP8 (11727945_x_at) / Fold change /veh ARHGAP8 /// PRR5-ARHGAP8 (11727945_x_at) / RFU KRTAP5-7 /// NADSYN1 (11734609_at) / Fold change /veh KRTAP5-7 /// NADSYN1 (11734609_at) / RFU RASL12 (11751679_a_at) / Fold change /veh RASL12 (11751679_a_at) / RFU CDKN2B (11736163_a_at) / Fold change /veh CDKN2B (11736163_a_at) / RFU PRF1 (11729649_at) / Fold change /veh PRF1 (11729649_at) / RFU, ZNF638 /// ZNF638-IT1 / Fold change vs veh, ZNF638 /// ZNF638-IT1 / RFU, PANK3 / Fold change vs veh, PANK3 / RFU, SH3YL1 / Fold change vs veh, SH3YL1 / RFU, ZEB2 / Fold change vs veh, ZEB2 / RFU, NRIP1 / Fold change vs veh, NRIP1 / RFU, PTTG1IP / Fold change vs veh, PTTG1IP / RFU, CAPN2 / Fold change vs veh, CAPN2 / RFU, MED14 / Fold change vs veh, MED14 / RFU, SNORA58 / Fold change vs veh, SNORA58 / RFU, C1orf63 / Fold change vs veh, C1orf63 / RFU, LRRFIP1 / Fold change vs veh, LRRFIP1 / RFU, NDUFAF7 / Fold change vs veh, NDUFAF7 / RFU, SLC12A2 / Fold change vs veh, SLC12A2 / RFU, IBTK / Fold change vs veh, IBTK / RFU, ESF1 / Fold change vs veh, ESF1 / Fold change vs veh, TMEM50B / RFU, TAOK1 / Fold change vs veh, TAOK1 / RFU, ACBD3 / Fold change vs veh, ACBD3 / RFU, TMA16 / Fold change vs veh, TMA16 / RFU, RWDD3 / Fold change vs veh, RWDD3 / RFU, BCAT1 / Fold change vs veh, BCAT1 / RFU, EDEM3 / Fold change vs veh, EDEM3 / RFU, TMEM33 / Fold change vs veh, TMEM33 / RFU, WDR75 / Fold change vs veh, WDR75 / RFU, AHCTF1 / Fold change vs veh, AHCTF1 / RFU, TFRC / Fold change vs veh, TFRC / RFU, ZDHHC17 / Fold change vs veh, ZDHHC17 / RFU, NOM1 / Fold change vs veh, NOM1 / RFU, ARL8B / Fold change vs veh, ARL8B / RFU, ZBTB11 / Fold change vs veh, ZBTB11 / RFU, TAMM41 / Fold change vs veh, TAMM41 / RFU, KIAA1704 /// LOC100996395 / Fold change vs veh, KIAA1704 /// LOC100996395 / RFU, ING1 / Fold change vs veh, ING1 / RFU, TRMT61B / Fold change vs veh, TRMT61B / RFU, FUBP3 / Fold change vs veh, FUBP3 / RFU, TP53 / Fold change vs veh, TP53 / RFU, TNKS2 / Fold change vs veh, TNKS2 / RFU, ZFP14 / Fold change vs veh, ZFP14 / RFU, ACTR2 / Fold change vs veh, ACTR2 / RFU, PPP3R1 / Fold change vs veh, PPP3R1 / RFU, PIK3R1 / Fold change vs veh, PIK3R1 / RFU, HNRNPA1 / Fold change vs veh, HNRNPA1 / RFU, RNF170 / Fold change vs veh, RNF170 / RFU, ZNF28 / Fold change vs veh, ZNF28 / RFU, RNGTT / Fold change vs veh, RNGTT / RFU, OGT / Fold change vs veh, OGT / RFU, BRD1 / Fold change vs veh, BRD1 / RFU, MARS / Fold change vs veh, MARS / RFU, ZNF655 / Fold change vs veh, ZNF655 / RFU, FAHD1 / Fold change vs veh, FAHD1 / RFU, BDP1 / Fold change vs veh, BDP1 / RFU, LRRCC1 / Fold change vs veh, LRRCC1 / RFU, ARID1A / Fold change vs veh, ARID1A / RFU, ZNF146 / Fold change vs veh, ZNF146 / RFU, ZNF330 / Fold change vs veh, ZNF330 / RFU, GPN3 / Fold change vs veh, GPN3 / RFU, C9orf123 / Fold change vs veh, C9orf123 / RFU, N4BP2L2 / Fold change vs veh, N4BP2L2 / RFU, ARFIP1 / Fold change vs veh, ARFIP1 / RFU, FAM179B / Fold change vs veh, FAM179B / RFU, BCL10 / Fold change vs veh, BCL10 / RFU, UHRF1BP1L / Fold change vs veh, UHRF1BP1L / RFU, BET1 / Fold change vs veh, BET1 / RFU, CNOT2 / Fold change vs veh, CNOT2 / RFU, ZNF268 / Fold change vs veh, ZNF268 / Fold change vs veh, ZNF507 / RFU, DGCR2 / Fold change vs veh, DGCR2 / RFU, WDSUB1 / Fold change vs veh, WDSUB1 / Fold change vs veh, HSP90B1 /// MIR3652 / RFU, ADSS / Fold change vs veh, ADSS / RFU, GK / Fold change vs veh, GK / RFU, ZNF148 / Fold change vs veh, ZNF148 / RFU, TAF9 / Fold change vs veh, TAF9 / RFU, SLC1A5 / Fold change vs veh, SLC1A5 / RFU, SLMO2 / Fold change vs veh, SLMO2 / RFU, ABCC4 / Fold change vs veh, ABCC4 / RFU, LOC101060439 /// RAP1B / Fold change vs veh, LOC101060439 /// RAP1B / RFU, RFX7 / Fold change vs veh, RFX7 / RFU, GTPBP10 / Fold change vs veh, GTPBP10 / RFU, CNEP1R1 / Fold change vs veh, CNEP1R1 / RFU, BIVM-ERCC5 /// ERCC5 / Fold change vs veh, BIVM-ERCC5 /// ERCC5 / RFU, ILF3 / Fold change vs veh, ILF3 / RFU 11762660_at / Fold change /veh 11762660_at / RFU VCAN (11757783_s_at) / Fold change /veh VCAN (11757783_s_at) / RFU DDX43 (11728927_at) / Fold change /veh DDX43 (11728927_at) / RFU KRT8 (11758188_x_at) / Fold change /veh KRT8 (11758188_x_at) / RFU NKD1 (11759106_at) / Fold change /veh NKD1 (11759106_at) / RFU SRD5A1 (11742802_a_at) / Fold change /veh SRD5A1 (11742802_a_at) / RFU TPSAB1 /// TPSB2 (11721975_s_at) / Fold change /veh TPSAB1 /// TPSB2 (11721975_s_at) / RFU GSTM3 (11746129_a_at) / Fold change /veh GSTM3 (11746129_a_at) / RFU IL23R (11737362_x_at) / Fold change /veh IL23R (11737362_x_at) / RFU TMEM51 (11727254_a_at) / Fold change /veh TMEM51 (11727254_a_at) / RFU PIWIL2 (11732686_x_at) / Fold change /veh PIWIL2 (11732686_x_at) / RFU ORM1 (11744905_x_at) / Fold change /veh ORM1 (11744905_x_at) / RFU CCDC152 (11743942_at) / Fold change /veh CCDC152 (11743942_at) / RFU ECM1 (11717891_a_at) / Fold change /veh ECM1 (11717891_a_at) / RFU IL23R (11748794_a_at) / Fold change /veh IL23R (11748794_a_at) / RFU TNFAIP8L3 (11732012_x_at) / Fold change /veh TNFAIP8L3 (11732012_x_at) / RFU MBOAT4 (11741988_at) / Fold change /veh MBOAT4 (11741988_at) / RFU 11764193_at / Fold change /veh 11764193_at / RFU TMEM53 (11763286_at) / Fold change /veh TMEM53 (11763286_at) / RFU MAGEB2 (11727129_at) / Fold change /veh MAGEB2 (11727129_at) / RFU TMEM200A (11744735_a_at) / Fold change /veh TMEM200A (11744735_a_at) / RFU CCDC152 (11751479_a_at) / Fold change /veh CCDC152 (11751479_a_at) / RFU FAM211A (11726209_a_at) / Fold change /veh FAM211A (11726209_a_at) / RFU RGS16 (11746705_a_at) / Fold change /veh RGS16 (11746705_a_at) / RFU VCAN (11755009_s_at) / Fold change /veh VCAN (11755009_s_at) / RFU RHOB (11743442_s_at) / Fold change /veh RHOB (11743442_s_at) / RFU RGS16 (11720943_a_at) / Fold change /veh RGS16 (11720943_a_at) / RFU RGS16 (11720944_at) / Fold change /veh RGS16 (11720944_at) / RFU, VPS4B / Fold change vs veh, VPS4B / RFU, CREB1 / Fold change vs veh, CREB1 / RFU, DNAJC13 / Fold change vs veh, DNAJC13 / RFU, GNAQ / Fold change vs veh, GNAQ / RFU, CDK5R1 / Fold change vs veh, CDK5R1 / RFU, ZRANB3 / Fold change vs veh, ZRANB3 / RFU, CUL4A / Fold change vs veh, CUL4A / RFU, CCNY / Fold change vs veh, CCNY / RFU, UFL1 / Fold change vs veh, UFL1 / RFU, COG3 / Fold change vs veh, COG3 / RFU, DIAPH2 / Fold change vs veh, DIAPH2 / RFU, SKA2 / Fold change vs veh, SKA2 / RFU, AFF3 / Fold change vs veh, AFF3 / RFU, LMF1 / Fold change vs veh, LMF1 / RFU, IPO11 / Fold change vs veh, IPO11 / RFU, DFFB / Fold change vs veh, DFFB / RFU, FOXP1 / Fold change vs veh, FOXP1 / RFU, CARD8 / Fold change vs veh, CARD8 / RFU, STRN3 / Fold change vs veh, STRN3 / RFU, ADK / Fold change vs veh, ADK / RFU, RASSF2 / Fold change vs veh, RASSF2 / RFU, WIPF1 / Fold change vs veh, WIPF1 / RFU, LARP1B / Fold change vs veh, LARP1B / RFU, RASA1 / Fold change vs veh, RASA1 / RFU, RB1 / Fold change vs veh, RB1 / RFU, PPFIA1 / Fold change vs veh, PPFIA1 / RFU, MAT2A / Fold change vs veh, MAT2A / RFU, CCT5 / Fold change vs veh, CCT5 / RFU, WDR92 / Fold change vs veh, WDR92 / RFU, CUX1 / Fold change vs veh, CUX1 / RFU, TTC7A / Fold change vs veh, TTC7A / RFU, TMEM135 / Fold change vs veh, TMEM135 / RFU, DEPTOR / Fold change vs veh, DEPTOR / RFU, CPM / Fold change vs veh, CPM / RFU, DNAJB6 / Fold change vs veh, DNAJB6 / RFU, CACNA2D3 / Fold change vs veh, CACNA2D3 / RFU, DTX4 / Fold change vs veh, DTX4 / RFU, TFCP2 / Fold change vs veh, TFCP2 / RFU, GMCL1 /// GMCL1P1 / Fold change vs veh, GMCL1 /// GMCL1P1 / RFU, AEBP2 / Fold change vs veh, AEBP2 / RFU, SNHG1 /// SNORD22 /// SNORD25 /// SNORD26 /// SNORD27 /// SNORD28 /// SNORD29 /// SNORD31 / Fold change vs veh, SNHG1 /// SNORD22 /// SNORD25 /// SNORD26 /// SNORD27 /// SNORD28 /// SNORD29 /// SNORD31 / Fold change (Aza/veh), C12orf56 (ProbeSet 11735607_a_at) / Fold change (ACY-1035/veh), C12orf56 (ProbeSet 11735607_a_at) / Fold change (Aza/veh), FGFR1OP (ProbeSet 11751329_s_at) / Fold change (ACY-1035/veh), FGFR1OP (ProbeSet 11751329_s_at) / Fold change (Aza/veh), VPS36 (ProbeSet 11739960_a_at) / Fold change (ACY-1035/veh), VPS36 (ProbeSet 11739960_a_at) / RFU SYPL1 (11715823_x_at) / Fold change /veh SYPL1 (11715823_x_at) / RFU IGFBP7 (11715501_s_at) / Fold change /veh IGFBP7 (11715501_s_at) / RFU REEP3 (11722064_at) / Fold change /veh REEP3 (11722064_at) / RFU IGLL1 (11728026_x_at) / Fold change /veh IGLL1 (11728026_x_at): dose or concentration left out as unconfirmed
Conditions: MV-4-11 cells, 48 hours

Nc1ccc(-c2cccs2)cc1NC(=O)c1ccc2c(c1)cc(C1CC1)n2CCN1CCOCC1 [ACY-1035]
RFU KIR2DL2 /// KIR2DL4 /// KIR2DL5A /// KIR2DL5B /// KIR2DS1 /// KIR2DS2 /// KIR2DS3 /// KIR2DS4 /// KIR3DL3 /// KIR3DL3 /// KIR3DS1 (11738374_at): 11.07 RFU
